Activity calls are given as the source filed them. The calls are words filed in the database; no cut-off is given here.
Assays:
SW-620 [1] = experiment: Antiproliferative activity against human SW620 cells at 10 uM after 72 hrs by MTT assay; format: functional, cell-based
HT-29 [2] = experiment: Antiproliferative activity against human HT-29 cells assessed as reduction in cell viability after 72 hrs by MTT assay; format: functional, cell-based; settings: HT-29, 72 h
LoVo [3] = experiment: Antiproliferative activity against human LoVo cells at 10 uM after 72 hrs by MTT assay; format: functional, cell-based
[4] = Therapeutic index, ratio of IC50 for human NHDF cells to IC50 for human RKO cells after 72 hrs; format: toxicity; settings: NHDF cells versus RKO cells, read-out: Ratio IC50
LoVo [5] = experiment: Antiproliferative activity against human LoVo cells assessed as reduction in cell viability after 72 hrs by MTT assay; format: functional, cell-based
T84 [6] = experiment: Antiproliferative activity against human T84 cells at 10 uM after 72 hrs by MTT assay; format: functional, cell-based
SW-620 [7] = experiment: Antiproliferative activity against human SW620 cells assessed as reduction in cell viability after 72 hrs by MTT assay; format: functional, cell-based; settings: SW-620, 72 h
HT-29 [8] = experiment: Antiproliferative activity against human HT-29 cells at 10 uM after 72 hrs by MTT assay; format: functional, cell-based
[9] = Therapeutic index, ratio of IC50 for human NHDF cells to IC50 for human NCI-H508 cells after 72 hrs; format: toxicity; settings: NHDF cells versus NCI-H508 cells, read-out: Ratio IC50
NHDF = experiment: Cytotoxicity against human NHDF cells assessed as reduction in cell viability; format: cell-based
NCI-H508 [10] = experiment: Antiproliferative activity against human NCI-H508 cells assessed as reduction in cell viability after 72 hrs by MTT assay; format: functional, cell-based; settings: NCI-H508, 72 h
[11] = Therapeutic index, ratio of IC50 for human NHDF cells to IC50 for human LoVo cells after 72 hrs; format: toxicity; settings: NHDF cells versus LoVo cells, read-out: Ratio IC50
[12] = Therapeutic index, ratio of IC50 for human NHDF cells to IC50 for human HT-29 cells after 72 hrs; format: toxicity; settings: NHDF cells versus HT-29 cells, read-out: Ratio IC50
[13] = Therapeutic index, ratio of IC50 for human NHDF cells to IC50 for human SW620 cells after 72 hrs; format: toxicity; settings: NHDF cells versus SW620 cells, read-out: Ratio IC50
NCI-H508 [14] = experiment: Antiproliferative activity against human NCI-H508 cells at 10 uM after 72 hrs by MTT assay; format: functional, cell-based
RKO [15] = experiment: Antiproliferative activity against human RKO cells at 10 uM after 72 hrs by MTT assay; format: functional, cell-based
RKO [16] = experiment: Antiproliferative activity against human RKO cells assessed as reduction in cell viability after 72 hrs by MTT assay; format: functional, cell-based
[17] = Therapeutic index, ratio of IC50 for human NHDF cells to IC50 for human T84 cells after 72 hrs; format: toxicity; settings: NHDF cells versus T84 cells, read-out: Ratio IC50
T84 [18] = experiment: Antiproliferative activity against human T84 cells assessed as reduction in cell viability after 72 hrs by MTT assay; format: functional, cell-based; settings: T84, 72 h

Row | Structure (SMILES) | Activity (SW-620 [1]) | IC50 (HT-29 [2]) [µM] | Activity (LoVo [3]) | selectivity ratio at 72 h [4] | IC50 (LoVo [5]) [µM] | Activity (T84 [6]) | IC50 (SW-620 [7]) [µM] | Activity (HT-29 [8]) | selectivity ratio at 72 h [9] | IC50 (NHDF) [µM] | IC50 (NCI-H508 [10]) [µM] | selectivity ratio at 72 h [11] | selectivity ratio at 72 h [12] | selectivity ratio at 72 h [13] | Activity (NCI-H508 [14]) | Activity (RKO [15]) | IC50 (RKO [16]) [µM] | selectivity ratio at 72 h [17] | IC50 (T84 [18]) [µM]
1 | COc1cc(/C=C2\CCC/C(=C\c3ccc(O)c(O)c3)C2=O)cc(OC)c1OC | Active | 8.5 | Active | 1.1 to 3.3 | 2.7 | Active | 3.2 | Active | 1.1 to 3.3 | 9 | 7 | 1.1 to 3.3 | 1.1 to 3.3 | 1.1 to 3.3 | Active | Active | 3.1 | 1.1 to 3.3 | 3.6
2 | COc1ccc(/C=C2\CCC/C(=C\c3cc(OC)c(OC)c(OC)c3)C2=O)cc1OC | Active | 1.5 | Active | 3.1 to 4.5 | 1.7 | Active | 1.6 | Active | 3.1 to 4.5 | – | 1.7 | 3.1 to 4.5 | 3.1 to 4.5 | 3.1 to 4.5 | Active | Active | 1.3 | 3.1 to 4.5 | 1.9
3 | COc1cc(/C=C2\CCC/C(=C\c3ccc(F)c(F)c3)C2=O)cc(OC)c1OC | Active | 1.7 | Active | 2.7 to 6.5 | 2.3 | Active | 4.1 | Active | 2.7 to 6.5 | 11.1 | 4 | 2.7 to 6.5 | 2.7 to 6.5 | 2.7 to 6.5 | Active | Active | 2.2 | 2.7 to 6.5 | 3.5
4 | COc1cc(/C=C2\CCC/C(=C\c3cccc(O)c3)C2=O)cc(OC)c1OC | Active | 7.6 | Active | 3.3 to 5.3 | 4.8 | Active | > 10 | Active | 3.3 to 5.3 | 25.3 | 5.6 | 3.3 to 5.3 | 3.3 to 5.3 | 3.3 to 5.3 | Active | Active | 6.5 | 3.3 to 5.3 | 6.5
5 | COc1ccccc1/C=C1\CCC/C(=C\c2cc(OC)c(OC)c(OC)c2)C1=O | Active | 1.2 | Active | 3.6 to 7.2 | 1.1 | Active | 2 | Active | 3.6 to 7.2 | 7.9 | 2.2 | 3.6 to 7.2 | 3.6 to 7.2 | 3.6 to 7.2 | Active | Active | 1.2 | 3.6 to 7.2 | 2.1
6 | O=c1[nH]cc(F)c(=O)[nH]1 [FLUOROURACIL] | – | > 10 | – | – | 2.7 | – | > 10 | – | – | > 50 | 8.8 | – | – | – | – | – | 2.9 | – | > 10
7 | COc1cc(/C=C2\CCC/C(=C\c3ccccc3Br)C2=O)cc(OC)c1OC | Active | 2.8 | Active | 3 to 5 | 2.8 | Active | 3.3 | Active | 3 to 5 | 12.4 | 2.7 | 3 to 5 | 3 to 5 | 3 to 5 | Active | Active | 2.5 | 3 to 5 | 4.2
8 | COc1cccc(/C=C2\CCC/C(=C\c3cc(OC)c(OC)c(OC)c3)C2=O)c1OC | Active | 3.2 | Active | 3.9 to 7.2 | 2.6 | Active | 4.5 | Active | 3.9 to 7.2 | 18.8 | 4.8 | 3.9 to 7.2 | 3.9 to 7.2 | 3.9 to 7.2 | Active | Active | 3.6 | 3.9 to 7.2 | 3.9
9 | COc1cc(/C=C2\CCC/C(=C\c3ccccc3F)C2=O)cc(OC)c1OC | Active | 1.6 | Active | 1.8 to 2.7 | 1.9 | Active | 2.1 | Active | 1.8 to 2.7 | 4 | 2 | 1.8 to 2.7 | 1.8 to 2.7 | 1.8 to 2.7 | Active | Active | 1.5 | 1.8 to 2.7 | 2.2
